Tests used:
mosquitoes = conditions: cited from earlier work
[1] = system: female A. aegypti mosquitoes; test: Repellency test, treated hand in cage of mosquitoes, time to first bite; assay type: in vivo; conditions: for Repellency: repellency time until first bite, solutions of 15 to 20% in ethanol applied to hand, cage with 20 female A. aegypti
Description: Repellency tests can be carried out in the laboratory, at a temperature of 20° C.±2° C. and a relative humidity of 50 to 60%. Temperature and relative humidity data should be monitored and recorded using a digital thermohygrometer during the experiments.
To perform the tests, there were used wooden cages with screens on the sides and glass on the upper face measuring 30 cm×30 cm×30 cm containing 20 female A. aegypti mosquitoes, all mated with no previous blood meal. The tests must be carried out during the daytime, respecting the preference for the mosquito's hematophagy activity.
For the tests, one of the hands of the analyzer must be sanitized with neutral soap and then the upper, lower, lateral face and the region between the fingers must be treated with repellent solutions in ethanol, in order for the compounds to have their repellency activities evaluated. […]
When the first bite occurs, the experiment is interrupted, and the time is recorded by a digital stopwatch.

CCN(CC)C(=O)c1cccc(C)c1 [DEET, N,N-diethyl-3-methylbenzamide]
long-lasting effect (duration) (mosquitoes; concentration of 20% to 30% of the compound): more than 6 hours

CCCCN(CCC(=O)OCC)C(C)=O [IR 3535, ethyl butylacetylaminopropionate]
effectiveness (mosquitoes; used in a concentration above 10%): slightly lower compared to DEET

CCC(C)OC(=O)N1CCCCC1CCO (centres unmarked) [Icaridin]
protection (duration) (mosquitoes; concentration of 20%): up to 10 hours | minimum concentration for repellent action (mosquitoes; in vivo): 5%

CCCC(=O)OC(C)C(=O)N1CCCC1 (centres unmarked) [Input 2]
Repellency [1]: >10 h

CCCC(=O)O[C@@H](C)C(=O)N(CC)CC [Input 3]
Repellency [1]: 2 h

CCN(CC)C(=O)[C@H](C)OC(C)=O [Input 4]
Repellency [1]: 5 h

CCCC(=O)O[C@@H](C)C(=O)N1CCCCC1 [Input 5]
Repellency [1]: >10 h

C[C@H](O)C(=O)N1CCCC1 [Input 7]
Repellency [1]: 0 h

CCCC(=O)O[C@@H](C)C(=O)N1CCCC1 [Input 8]
Repellency [1]: >12 h | result in terms of repellency time (comparison within Table 1) ([1]; solutions of 15 to 20% in ethanol): best result in terms of repellency time
